According to ChEMBL document CHEMBL4828760, “Chalcogenides-incorporating carbonic anhydrase inhibitors concomitantly reverted oxaliplatin-induced neuropathy and enhanced antiproliferative action” (Eur J Med Chem, 2021):
The source made the active and inactive calls.

Tests used:
[1] = target: Carbonic anhydrase 9 (Homo sapiens, UniProt Q16790); experiment: Inhibition of recombinant human CA9 pre-incubated for 15 mins measured by phenol red dye based stopped flow CO2 hydration assay
[2] = system: MCF7; experiment: Cytotoxicity against human MCF7 cells assessed as reduction in cell viability at 100 uM measured after 72 hrs under hypoxic condition in presence of cisplatin by MTT assay; format: functional, cell-based
[3] = system: MCF7; experiment: Cytotoxicity against human MCF7 cells assessed as reduction in cell viability at 100 uM measured after 72 hrs under hypoxic condition in presence of doxorubicin by MTT assay; format: functional, cell-based
[4] = system: MCF7; experiment: Cytotoxicity against human MCF7 cells assessed as reduction in cell viability measured after 72 hrs under hypoxic condition by MTT assay; settings: MCF7, 72 h
[5] = system: Mus musculus; experiment: Antiallodynic activity in po dosed CD-1 albino mouse model of oxaliplatin-induced neuropathic pain assessed as reduction in pain-related behavior administered 14 days post oxaliplatin induction and measured upto 75 mins by cold plate test; format: functional, organism-based; settings: dose 10-100 mg/kg, time 14.0 day
[6] = system: Mus musculus; experiment: Anti-hypersensitive activity in CD-1 albino mouse model of oxaliplatin-induced neuropathic pain assessed as restoration of normal pain threshold at 10 mg/kg, po administered 14 days post oxaliplatin induction and measured upto 75 mins by cold plate test; format: functional, organism-based; settings: time min <=75
[7] = system: Mus musculus; experiment: Anti-hypersensitive activity in CD-1 albino mouse model of oxaliplatin-induced neuropathic pain assessed as restoration of normal pain threshold at 30 to 100 mg/kg, po administered 14 days post oxaliplatin induction and measured upto 75 mins by cold plate test; format: functional, organism-based; settings: dose 30-100 mg/kg, time min <=75
[8] = system: Mus musculus; experiment: Anti-hypersensitive activity in CD-1 albino mouse model of oxaliplatin-induced neuropathic pain assessed as restoration of normal pain threshold at 100 mg/kg, po administered 14 days post oxaliplatin induction and measured upto 75 mins by cold plate test; format: functional, organism-based; settings: time min <=75

Row | SMILES | Ki [1] | further results
1 | NS(=O)(=O)c1ccc(SCC(O)CSc2ccccc2Br)cc1 (stereo unspecified) | 175 nM | 
2 | CCCC[Se]CC(O)C[Se]c1ccc(S(N)(=O)=O)cc1 (stereo unspecified) | 208 nM | 
3 | CCCC[Se]CC(O)CSc1ccc(S(N)(=O)=O)cc1 (stereo unspecified) | 164 nM | Activity [2]: Active; Activity [3]: Active
4 | NS(=O)(=O)c1ccc([Se]CC(O)CSc2ccccc2)cc1 (stereo unspecified) | 288 nM | Activity [2]: inactive; Activity [3]: Active
5 | CC(O)CSCC(O)C[Se]c1ccc(S(N)(=O)=O)cc1 (stereo unspecified) | 275 nM | 
6 | C=CCOCC(O)C[Se]CC(O)C[Se]c1ccc(S(N)(=O)=O)cc1 (stereo unspecified) | 157 nM | 
7 | Cc1ccc([Te]CC(O)C[Se]c2ccc(S(N)(=O)=O)cc2)cc1 (stereo unspecified) | 152 nM | 
8 | COc1cc([Te]CC(O)CSc2ccc(S(N)(=O)=O)cc2)cc(OC)c1OC (stereo unspecified) | 187 nM | IC50 [4]: 125000 nM; Activity [2]: Active; Activity [3]: Active
9 | NS(=O)(=O)c1ccc([Se]CC(O)CSc2ccc(Br)cc2)cc1 (stereo unspecified) | 172 nM | Activity [5]: Dose-Dependent Effect; Activity [6]: Active; Activity [7]: Active
10 | NS(=O)(=O)c1ccc([Se]CC(O)CSc2ncccn2)cc1 (stereo unspecified) | 31 nM | 
11 | Cc1ccc(S(=O)(=O)N[C@@H](C)CSCC(O)CSc2ccc(S(N)(=O)=O)cc2)cc1 (stereo partly specified) | 193 nM | 
12 | COc1ccc([Se]CC(O)CSc2ccc(S(N)(=O)=O)cc2)cc1 (stereo unspecified) | 156 nM | 
13 | NS(=O)(=O)c1ccc([Se]CC(O)C[Se]c2ccccc2)cc1 (stereo unspecified) | 84.5 nM | Activity [5]: Dose-Dependent Effect; Activity [7]: Active
14 | C=CCOCC(O)C[Se]CC(O)CSc1ccc(S(N)(=O)=O)cc1 (stereo unspecified) | 241 nM | 
15 | NS(=O)(=O)c1ccc(SCC(O)CSc2cccc(Br)c2)cc1 (stereo unspecified) | 135 nM | 
16 | NS(=O)(=O)c1ccc(SCC(O)C[Se]c2ccccc2)cc1 (stereo unspecified) | 29.2 nM | Activity [5]: Dose-Dependent Effect; Activity [8]: Active
17 | Cc1ccccc1[Se]CC(O)C[Se]c1ccc(S(N)(=O)=O)cc1 (stereo unspecified) | 29.4 nM | 
